Drawing on BindingDB's records for patent US10849881 (Hoffmann-La Roche, 2020), this text covers IC50 for 1 molecule.

The test deals with Autotaxin (Homo sapiens, UniProt Q13822). As to the kind of experiment: Enzyme Inhibition Assay. Here is the method: ATX inhibition was measured by a fluorescence quenching assay using a specifically labeled substrate analogue (MR121 substrate). To obtain this MR121 substrate, BOC and TBS protected 6-amino-hexanoic acid (R)-3-({2-[3-(2-{2-[2-(2-amino-ethoxy)-ethoxy]-ethoxy}-ethoxy)-propionylamino]-ethoxy}-hydroxy-phosphoryloxy)-2-hydroxy-propyl ester (Ferguson et al., Org Lett 2006, 8 (10), 2023) was labeled with MR121 fluorophore (CAS 185308-24-1, 1-(3-carboxypropyl)-11-ethyl-1,2,3,4,8,9,10,11-octahydro-dipyrido[3,2-b:2′,3′-i]phenoxazin-13-ium) on the free amine of the ethanolamine side and then, after deprotection, subsequently with tryptophan on the side of the aminohexanoic acid.Assay working solutions were made as follows:Assay buffer (50 mM Tris-HCl, 140 mM NaCl, 5 mM KCl, 1 mM CaCl2, 1 mM MgCl2, 0.01% Triton-X-100, pH 8.0;ATX solution: ATX (human His-tagged) stock solution (1.08 mg/mL in 20 mM bicine, pH 8.5, 0.15 M NaCl, 10% glycerol, 0.3% CHAPS, 0.02% NaN3), diluted to 1.4-2.5× final concentration in assay buffer;MR121 substrate solution: MR121 substrate stock solution (800 μM MR121 substrate in DMSO), diluted to 2-5× final concentration in assay buffer.

As usually defined, the IC50 is the concentration needed to halve the response being measured. A low value points to higher potency. In the case of `O=C(c1ccc2cc(Br)ccc2c1)N1C[C@@H]2[C@H](C1)[C@H]1CN(C(=O)c3ccc4[nH]nnc4c3)C[C@@H]21` [US10849881, Example 1.004], the IC50 came out at 17 nM.
